Laboratory results as given in US20140322198A1, “COMPOSITION COMPRISING VICENIN-2 HAVING A BENEFICIAL EFFECT ON NEUROLOGICAL AND/OR COGNITIVE FUNCTION” (priority 2011, published 2014).
Values after ≈ are worked out from the molar mass of the structure shown. “Also recorded” adds a separate entry of the source.

How the values were obtained:
[1] = test system: murine frontal cortex networks; assay: Acute effects on cortical network activity (spike rate), MEA-neurochip multichannel recording; format: cell-based, mice
Protocol: Purpose of this example was the evaluation of the acute neuroactive effects of vicenin 2 (named AUC-V) and of Perilla extract (named AUC-P) comprising and standardized on Vicenin 2 on the neuronal activity of murine frontal cortex networks in vitro by means of electrophysiological multi-channel recordings. In this system, cells or tissues are grown directly on the chip surface and communicate via chemical and electrical signals. The MEA-neurochip allows the non-invasive, long-term, multisite recording of electrical signal patterns of primary neuronal networks. Said MEA-neurochip technology enables the characterization of network activity pattern on the single-cell action-potential level and on the level of complex neuronal networks as the basic functional units. This can also be used as a test system for investigating neuro-physiological properties of compounds. Despite the complexity, the neurophysiological action profiles of neuroactive compounds are sensitive and selective as well as robust and stable, allowing a precise pharmacological “fingerprinting” and the creation of a database of information on well-characterized neuroactive substances. The multiparametric description of the activity pattern changes caused by treatment of a brain-region-specific neuronal network is a sophisticated approach to quantify the complex effects of neuroactive agents, of unknown compounds, and of complex mixtures such as biological extracts. Correlation with well-known neuroactive substances and their specific pattern, available in specific databased, provides novel insights into the possible pharmacological and physiological mechanisms of modes of action of herbal preparations or isolated substances. […] The recorded electrical activity patterns were characterized by 200 features and their changes were statistically evaluated. […] Cultures were incubated at 37° C. in a 10% CO2 atmosphere until ready for use, which usually is four weeks to three months after seeding. […]

[2] = test system: murine frontal cortex networks; assay: Pattern recognition and classification of MEA activity patterns against NeuroProof database (105 substances); format: cell-based, mice; conditions: for % of data records classified as reference substance: AUC-V, all
Protocol: Afterwards, a further analysis was carried out through a pattern-recognition analysis and through comparison with NeuroProof database to determine relevant mechanisms involved in the frontal cortex activity pattern induced changes by each substance.
To clarify the mode of action of the test substance on the activity of cortical networks these experiments were further analyzed using methods of pattern recognition. For each stable concentration activity phase the 200 spike train parameters were normalized by the native reference activity.
Using a feature selection algorithm, on the basis of the reference substances, the 40 most descriptive parameters for all 200 spike train parameters were selected. The rankings of activity features using various score methods based on classification experiments and comparing their total correct predictions were calculated. In this manner, the best results for a MDL (minimal description length) modified algorithm were obtained. A training data set with these 40 spike train parameters was established in the form of data records from the reference substances. An artificial neuronal network, multi layer feed forward network and back propagation algorithm without hidden units was then trained. The respective data records of the four substances were all subsequently classified. A classification against 105 substances in the database was carried out.

TNFα = assay: Ex vivo TNFα secretion in LPS-stimulated human whole blood; format: cell-based; conditions: ex vivo study, statement in words
Protocol: TNF alpha secretion [pg/ml] after co-incubation with LPS and Perilla extract of different concentration (1 μg/ml, 2.5 μg/ml and 50 μg/ml) against 450 μg/ml a benchmark blend, containing e.g. Boswellia extract, Omega 3 fatty acids, ALA and Curcumin. This study investigated the efficacy of Perilla extract comprising vicenin 2 to contribute to reduce TNFα levels. The study was designed as an ex vivo study, where human whole blood samples were treated with LPS, a bacterial blend, to stimulate inflammation which leads to an increase of the cytokine TNFα. Furthermore, the effect to reduce TNFα by Perilla extract was measured in comparison to a negative and positive control.

SMILES: O=c1cc(-c2ccc(O)cc2)oc2c([C@@H]3O[C@H](CO)[C@@H](O)[C@H](O)[C@H]3O)c(O)c([C@@H]3O[C@H](CO)[C@@H](O)[C@H](O)[C@H]3O)c(O)c12 [vicenin 2, 5,7-Dihydroxy-2-(4-hydroxyphenyl)-6,8-bis[(2S,3R,4R,5S,6R)-3,4,5-trihydroxy-6 (hydroxymethyl)oxan-2-yl]chromen-4-one]
- EC50 ([1]; Mus musculus, spike rate, frontal cortex networks in vitro, 9 accumulating concentrations, read-out: EC50 of decrease of the cortical network activity): 0.002 ng/mL (≈ 0.00336 nM)
- effects on burst structure and oscillatory behaviour of the network ([1]; cortical network activity pattern): no affects on the burst structure, however on the oscillatory behaviour of the network
- maximum decrease to % of the native activity ([1]; cortical network activity, native activity = 100%): 80%
- % of data records classified as reference substance ([2]; classified as Amisulpride): 15%
- % of data records classified as reference substance ([2]; classified as Atropinemethylbromide): 12%
- % of data records classified as reference substance ([2]; classified as DPDPE): 11%
- % of data records classified as reference substance ([2]; classified as Enkephalin): 14%
- % of data records classified as reference substance ([2]; classified as Eserine): 15%
- % of data records classified as reference substance ([2]; classified as Indatraline): 12%
- % of data records classified as reference substance ([2]; classified as Modafinil): 12%
- % of data records classified as reference substance ([2]; classified as Nicotine): 12%
- % of data records classified as reference substance ([2]; classified as Olanzapine): 17%
- % of data records classified as reference substance ([2]; classified as Sodium dodecyl sulfate): 12%
- activity identified by the classification ([2]; classification against reference substances (Amisulpride, Muscimol, Enkephalin)): sedative and anxiolytic activity; also recorded: enkephalin-like activity
- electrophysiological multi-channel recording pattern compared with positive controls ([2]; similarity to reference substances, in words): comparable with the pattern of the positive control eserine and nicotine; also recorded: comparable with the pattern of the positive control of carboxolone; also recorded: effects similar to amisulpride
- anti-inflammatory effects (TNFα): anti-inflammatory effects
